One block for each compound: values may come before it.
Columns and labels:
human renin [1] = molecular target: T1, human renin (Homo sapiens, UniProt P00797); experiment: Human renin-sheep renin substrate reaction system in vitro; type: biochemical; details: pH 7.4, 15 minutes at 37° C., read-out: IC50 (molar concentration)
T1 sequence (P00797 67-406): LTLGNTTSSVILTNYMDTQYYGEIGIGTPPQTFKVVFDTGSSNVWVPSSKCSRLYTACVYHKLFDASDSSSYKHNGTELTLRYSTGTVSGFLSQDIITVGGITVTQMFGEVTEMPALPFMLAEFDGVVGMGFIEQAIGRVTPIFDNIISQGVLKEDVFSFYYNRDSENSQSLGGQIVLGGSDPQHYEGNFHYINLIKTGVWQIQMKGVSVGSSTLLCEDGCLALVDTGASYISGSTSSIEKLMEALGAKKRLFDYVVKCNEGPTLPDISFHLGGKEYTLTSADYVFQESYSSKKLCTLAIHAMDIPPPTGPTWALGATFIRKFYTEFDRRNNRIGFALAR
Description: Human resin-sheep resin substrate reaction system in vitro To a mixture containing 200 μl of a 125 mM pyrophosphate buffer (pH 7.4), 25 μl of a 20 mM aqueous solution of […] as an angiotensin converting enzyme inhibitor, 50 μl of semipurified sheep renin substrate ([…]), 50 μl of dimethyl sulfoxide solution of an amino acid derivative of the present invention (or 50 μl of dimethyl sulfoxide as a control) and 150 μl of deionized water was added 25 μl of purified human renin (20-30 ng angiotensin I/ml/hr). The mixture was incubated for 15 minutes on a water bath at 37° C., and the reaction mixture was allowed to stand for 5 minutes on a water bath at 100° C. to stop the reaction. After cooling, 200 μl of the solution were taken up and the amount of angiotensin I produced by the addition of renin was determined by radioimmunoassay. The inhibitory effect was calculated by the following equation. [formula] The molar concentration which produced 50% inhibition (IC50) was calculated from the inhibition value obtained, and the results are shown below.

[2] = molecular target: T2, renin in human high renin plasma (Homo sapiens, UniProt P00797); experiment: Renin inhibitory effect in a human high renin plasma; type: biochemical; details: pH 7.4, 30 minutes at 37° C., read-out: IC50 (molar concentration)
T2 construct: 500 μl of human high renin plasma; from tissue; host or cells: human high renin plasma
T2 sequence (P00797 67-406): T1 sequence (P00797 67-406)
Description: Renin inhibitory effect in a human high renin plasma A mixture of 350 μl of a 0.5M phosphate buffer containing 14 mM EDTA 2Na and a 0.3% neomycin sulfate, which was adjusted to the pH of 7.4, 50 μl of a 20 mM an aqueous solution of […] as an angiotensin converting enzyme inhibitor and 100 μl of dimethyl sulfoxide solution containing an amino acid compound of the present invention was added to 500 μl of human high renin plasma. […] was incubated for 30 minutes at 37° C. in a water bath. A 200 μl sample was withdrawn from the incubated mixture, chilled immediately in an ice bath, and the amount of angiotensin I produced was determined by radioimmunoassay, and remaining of the mixture (200 μ[…] 4° C. in an ice bath. The amount of angiotensin I produced in the incubated mixture at 4° C. in an ice bath was determined by radioimmunoassay. As a control, the same procedure as above was carried out by using 100 μl of dimethyl sulfoxide alone in place of the 100 μl of dimethyl sulfoxide solution containing an amino acid compound of the present invention. The inhibitory effect was calculated by the following equation. [formula] The molar concentration which produced 50% inhibition (IC50) was calculated from the inhibition value obtained, and the results are shown below.

common marmoset = experiment: Hypotensive effect in marmoset (furosemide-induced high renin state); type: in vivo; details: oral
Description: The experiment was carried out by using common marmoset as described in K. G. Hofbauer et al., Clinical and Experimental hypertension, Vol. A5, Nos. 7 & 8 (1983), pages 1237-1247.
Furosemide was orally administered three times to common marmoset at 15 mg per kilogram per day every other day to create a high renin state. Blood pressure of conscious marmoset was measured 2 days after the last administration of furosemide.
Measurement of blood pressure
Two conscious male marmosets weighing 365-380 g were fixed. Mean blood pressure at tail artery was recorded on pretismograph instument. The amino acid compound of the present invention, administered orally using a catheter.

human renin [3] = molecular target: T1, human renin; details: 106th Annual Meeting of the Pharmaceutical Society of Japan (April, 1986)/Meeting of Japanese Circulation Journal (March, 1986); cited from earlier work
[4] = 100 mg/kg, n = 2, 1 hour after administration, control 94.0 in (a), 90.9 in (c)
[5] = 100 mg/kg, n = 2, 2 hours after administration, control 94.0 in (a), 90.9 in (c)
[6] = 100 mg/kg, n = 2, 3 hours after administration, control 94.0 in (a), 90.9 in (c)
[7] = 100 mg/kg, n = 2, 5 hours after administration, control 94.0 in (a), 90.9 in (c)
[8] = 100 mg/kg, n = 2, 7 hours after administration, control 94.0 in (a), 90.9 in (c)

IC50 (human renin [1]): 0.017 µM | IC50 [2]: 0.02 µM
Compound: COC(=O)CN(C)C(=O)CC(Cc1cccc2ccccc12)C(=O)N[C@@H](Cc1c[nH]cn1)C(=O)N[C@@H](CC(C)C)C(O)C(=O)OC(C)C (mixture of isomers) [Isopropyl(2RS,3S)-3-{N-[2-(1-naphthylmethyl)-3-(N-methyl-N-methoxycarbonylmethylcarbamoyl)propionyl]-L-histidyl}amino-2-hydroxy-5-methylhexanoate]
Blood pressure (common marmoset; 30 mg/kg, n = 2, 1 hour after administration, control 95.4): 62.1 mmHg | Blood pressure (common marmoset; 30 mg/kg, n = 2, 2 hours after administration, control 95.4): 59.8 mmHg | Blood pressure (common marmoset; 30 mg/kg, n = 2, 3 hours after administration, control 95.4): 66.5 mmHg | Blood pressure (common marmoset; 30 mg/kg, n = 2, 5 hours after administration, control 95.4): 84.9 mmHg | Blood pressure (common marmoset; 30 mg/kg, n = 2, 7 hours after administration, control 95.4): 88.3 mmHg

Compound: CC(C)CC(NC(=O)[C@H](Cc1c[nH]cn1)NC(=O)C(CC(=O)N1CCOCC1)Cc1cccc2ccccc12)C(O)C(=O)OC(C)C (stereo partly shown)
human renin inhibitory activity (human renin [3]): human renin inhibitory activity

IC50 (human renin [1]): 0.052 µM | IC50 [2]: 0.05 µM
Compound: COC(=O)[C@@H]1CCCN1C(=O)CC(Cc1cccc2ccccc12)C(=O)N[C@@H](Cc1c[nH]cn1)C(=O)N[C@@H](CC(C)C)C(O)C(=O)OC(C)C (stereo partly drawn) [Isopropyl(2RS,3S)-3-{N-[2-(1-naphthylmethyl)-3-(2S-methoxycarbonylpyrrolidinocarbonyl)propionyl]-L-histidyl}-amino-2-hydroxy-5-methylhexanoate]
Blood pressure (common marmoset; [4]): 77.5 mmHg | Blood pressure (common marmoset; [5]): 74.0 mmHg | Blood pressure (common marmoset; [6]): 70.0 mmHg | Blood pressure (common marmoset; [7]): 92.2 mmHg | Blood pressure (common marmoset; [8]): 101.5 mmHg

IC50 (human renin [1]): 0.025 µM | IC50 [2]: 0.056 µM
Compound: COC(=O)CC(Cc1cccc2ccccc12)C(=O)N[C@@H](Cc1c[nH]cn1)C(=O)N[C@@H](CC(C)C)C(O)C(=O)OC(C)C (mixture of isomers) [Isopropyl (2RS,3S)-3-[3-(methoxycarbonyl)-2-(1-naphthylmethyl)propionyl-L-histidyl]amino-2-hydroxy-5-methylhexanoate]
Blood pressure (common marmoset; [4]): 78.6 mmHg | Blood pressure (common marmoset; [5]): 76.9 mmHg | Blood pressure (common marmoset; [6]): 69.4 mmHg | Blood pressure (common marmoset; [7]): 76.0 mmHg | Blood pressure (common marmoset; [8]): 77.8 mmHg | Blood pressure (common marmoset; 100 mg/kg, n = 2, 9 hours after administration, control 90.9 in (c)): 85.3 mmHg

IC50 (human renin [1]): 0.089 µM | IC50 [2]: 0.18 µM
Compound: CC(C)C[C@H](NC(=O)[C@H](Cc1c[nH]cn1)NC(=O)C(CC(=O)N(CCO)CCO)Cc1cccc2ccccc12)C(O)C(=O)OC(C)C (mixture of isomers) [Isopropyl(2RS,3S)-3-{N-{2-(1-naphthylmethyl)-3-[bis(2-hydroxyethyl)carbamoyl]propionyl}-L-histidyl}amino-2-hydroxy-5-methylhexanoate]

IC50 (human renin [1]): 0.017 µM | IC50 [2]: 0.017 µM
Compound: COC(=O)CCN(C)C(=O)CC(Cc1cccc2ccccc12)C(=O)N[C@@H](Cc1c[nH]cn1)C(=O)N[C@@H](CC(C)C)C(O)C(=O)OC(C)C (mixture of isomers) [Isopropyl(2RS,3S)-3-{N-{2-(1-naphthylmethyl)-3-[N-methyl-N-{2-methoxycarbonylethyl)carbamoyl]propionyl}-L-histidyl}amino-2-hydroxy-5-methylhexanoate]

IC50 (human renin [1]): 0.064 µM | IC50 [2]: 0.16 µM
Compound: CC(C)C[C@H](NC(=O)[C@H](Cc1c[nH]cn1)NC(=O)C(CC(=O)OC(C)C)Cc1cccc2ccccc12)C(O)C(=O)OC(C)C (mixture of isomers) [Isopropyl (2RS,3S)-3-{N-[3-(isopropoxycarbonyl)-2-(1-naphthylmethyl)propionyl]-L-histidyl}amino-2-hydroxy-5-methylhexanoate]

IC50 (human renin [1]): 0.3 µM | IC50 [2]: 0.21 µM
Compound: COC(=O)[C@H](C)NC(=O)CC(Cc1cccc2ccccc12)C(=O)N[C@@H](Cc1c[nH]cn1)C(=O)N[C@@H](CC(C)C)C(O)C(=O)OC(C)C (stereo partly drawn) [Isopropyl(2RS,3S)-3-{N-{2-(1-naphthylmethyl)-3-[N-(1S-methoxycarbonylethyl)carbamoyl]propionyl}-L-histidyl}amino-2-hydroxy-5-methylhexanoate]

Source: patent publication US4857650A, “Novel renin inhibitory amino acid derivatives” (Kissei Pharmaceutical Co., Ltd., priority 1985, dated 1989)
